{"source": "patent EP1733758A1", "about": "“Methods for administration of a farnesyl dibenzodiazepinone” (Ecopia Biosciences Inc., priority 2005, dated 2006)", "key": {"[1]": {"tested_on": "orthotopic C6 glioma tumor xenograft", "assay": "Orthotopic C6 glioma tumor xenograft survival model", "type": "in vivo, CD1 female nude mice", "details": "IP 30 mg/kg days 1, 2 and 3, then 10 mg/kg days 4 and 5 and 9 to 38", "description": "The antitumor activity of the compound of formula I was further tested in a orthotopic C6 glioma tumor xenograft model in mice. CD1 female nude mice (6 weeks of age) were grafted intra-cerebrally with 5 x 10^4 (volume of 10 microliters) rat C6 glioma cells (day 0). Treatment was initiated 24 h after tumor cell implantation. The compound of Formula I was administered intraperitoneally (IP) at a concentration of 30 mg/kg (volume of 10 mL/Kg) on days 1, 2 and 3 followed by IP injections of 10 mg/kg on days 4 and 5 and 9 to 38. Vehicle (30% PEG; 30% PG; 40% H2O was injected in a volume of 10 mL/kg using the same route and schedule.\nBody weight of animals was monitored every other day and the effect of the compound of Formula I on growth of intracerebral glioma tumors was evaluated by mouse survival and percentage increase in life span (%ILS, expressed as mean survival time of treated animals minus the mean survival time of the control group). By criteria established by the National Cancer Institute, increases in life span exceeding 25% indicate that the drug has significant antitumor activity (Plowman et al. (1997) Human tumor xenografts models in NCI drug development. In: Theicher BA (ed) Anticancer drug development guide: prescreening, clinical trials and approval. Human press, Totowa, pp 101-125). Statistical analysis of mouse survival was performed by Kaplan-Mayer analysis. […]"}, "[2]": {"tested_on": "P388 murine leukemia cells", "assay": "Murine P388 leukemia survival model", "type": "in vivo", "description": "Formulation: The compound of Formula I is first dissolved in 1 volume of 90% propylene glycol (PG). This is followed by the addition of 2 volumes of 45% polyethylene glycol 400 (PEG 400). The volume ratio of PEG 400/PG/water is respectively 30:30:40. Compound is injected in a volume of 10 mL/kg.\nDBA/2 female mice (6 weeks of age) were injected intraperitoneally (IP) with 1 x 10^6 P388 murine leukemia cells (day 0). Mice were randomized in 4 groups (10 mice per group) at Day 1 and treated with the following dose and schedule. Group 1: IV injection of vehicle (PEG/PG formulation) on D1 and D8, daily IP administration of vehicle from D2 to D7 and from D9 to D10 Group 2: IV injection of the compound of Formula I in PEG-PG formulation at 50 mg/kg on D1 followed by daily IP administration of the compound of Formula I in PEG-PG formulation at 10 mg/kg from D2 to D4 and from D6 to D12 Group 3: Daily IP administration of the compound of Formula I in PEG-PG formulation at 10 mg/kg from D1 to D4 and from D8 to D14\nMice body weights were recorded twice a week. Lethality and behaviour of animals were recorded every day. All vehicle control mice died between D8 to D10 from peritoneal carcinomatosis associated with ascites. Three (3) mice from group 2 died one day after treatment due to formulation toxicity. The remaining seven (7) died between days 8 and 12. Mice from group 3 died between days 8 and 12. The results are expressed as percent of mean survival time of treated animals over the mean survival time of the control group (treated vs control, T/C%) and as increase life span (mean survival time of treated animals minus that of control animals over the mean survival time of the control group; ILS%)."}, "[3]": {"assay": "Population pharmacokinetic analysis (NONMEM), monkey", "type": "in vivo", "details": "for clearance: monkey, plasma, intravenous; for clearance / mean steady-state plasma concentration: monkeys, 14-day continuous infusion", "description": "An analysis was performed to derive allometric equations for Formula I pharmacokinetic parameters using Formula I plasma concentration-time data from three species, including mouse, rat, and monkey, and to estimate human pharmacokinetic parameters from those allometric equations.\nPlasma concentrations of Formula I were obtained from mice, rats, and monkeys following intravenous injection or continuous infusion. Formula I pharmacokinetic parameters in mice, rats, and monkeys were estimated using population pharmacokinetic analysis, a function of the software program NONMEM™ (version 5). Typical population pharmacokinetic parameters for Formula I in humans were extrapolated from allometric equations that were derived from pharmacokinetic parameters estimated in the three animal species.\nA two-compartment model with a first-order elimination from the central compartment adequately described Formula I plasma concentration-time profiles following intravenous bolus injection (30 mg/kg) in mice and rats, 7-day continuous infusion in rats (50 to 170 mg/kg/day), and 14-day continuous infusion in monkeys (5 to 30 mg/kg/day).\nApplication of a two-compartment model with Michaelis-Menten elimination better described the concentration data in monkeys than the linear model. Because the target concentration in humans is 2 µM, at which linear pharmacokinetics is assumed, all simulations for human plasma concentrations were performed based on a two-compartment model with linear first-order elimination."}, "[4]": {"details": "Grp 2: IV 50 mg/kg (D1), IP 10 mg/kg (D2-4 & D6-12)"}, "[5]": {"details": "Grp 3: IP 10 mg/kg (D1-4 & D8-14)"}, "[6]": {"details": "Monkey (CIV), typical population PK parameter"}, "[7]": {"details": "5 mg/kg/day (Example 9 analysis)"}, "[8]": {"details": "15 mg/kg/day (Example 9 analysis)"}, "[9]": {"details": "30 mg/kg/day (Example 9 analysis)"}}}
{"smiles": "CC(C)=CCC/C(C)=C/CC/C(C)=C/CN1C(=O)c2cccc(O)c2Nc2c(O)cc(O)cc21", "note": "[Formula I, 10-farnesyl-4,6,8-trihydroxy-dibenzodiazepin-11-one]", "values": [{"measurement": "increase in life span", "setting": "[1]", "result": 29, "unit": "%"}, {"measurement": "increase survival", "setting": "[1]", "result": 7, "unit": "days"}, {"measurement": "% ILS", "setting": "[2]; [4]", "result": 33, "unit": "%"}, {"measurement": "%T/C", "setting": "[2]; [4]", "result": 133.3, "unit": "%"}, {"measurement": "Mean Survival Days ± SD", "setting": "[2]; [4]", "result": "11 ± 1.5", "unit": "days"}, {"measurement": "Median survival", "setting": "[2]; [4]", "result": 12}, {"measurement": "% ILS", "setting": "[2]; [5]", "result": 38.9, "unit": "%"}, {"measurement": "%T/C", "setting": "[2]; [5]", "result": 138.9, "unit": "%"}, {"measurement": "Mean Survival Days ± SD", "setting": "[2]; [5]", "result": "12.6 ± 4.9", "unit": "days"}, {"measurement": "Median survival", "setting": "[2]; [5]", "result": 12.5}, {"measurement": "mice died one day after treatment due to formulation toxicity", "setting": "[2]; group 2 (10 mice), IV 50 mg/kg in PEG-PG formulation on D1", "result": 3, "unit": "mice"}, {"measurement": "Q", "setting": "[3]; Monkey (CIV), WT 3.8 Kg", "result": 0.151, "unit": "L/h"}, {"measurement": "V1", "setting": "[3]; Monkey (CIV), WT 3.8 Kg", "result": 0.771, "unit": "L"}, {"measurement": "V2", "setting": "[3]; Monkey (CIV), WT 3.8 Kg", "result": 1.59, "unit": "L"}, {"measurement": "Ke", "setting": "[3]; [6]", "result": 2.172, "unit": "h⁻¹"}, {"measurement": "Q", "setting": "[3]; [6]", "result": 0.0398, "unit": "L/h/kg"}, {"measurement": "V1", "setting": "[3]; [6]", "result": 0.203, "unit": "L/kg"}, {"measurement": "V2", "setting": "[3]; [6]", "result": 0.419, "unit": "L/kg"}, {"measurement": "clearance", "setting": "[3]; [7]", "result": 10.5, "unit": "mL/min/kg"}, {"measurement": "clearance", "setting": "[3]; [8]", "result": 9.5, "unit": "mL/min/kg"}, {"measurement": "clearance", "setting": "[3]; [9]", "result": 3.83, "unit": "mL/min/kg"}, {"measurement": "mean steady-state plasma concentration", "setting": "[3]; [7]", "result": 0.75, "unit": "µM"}, {"measurement": "mean steady-state plasma concentration", "setting": "[3]; [8]", "result": 2.57, "unit": "µM"}, {"measurement": "mean steady-state plasma concentration", "setting": "[3]; [9]", "result": 14.07, "unit": "µM"}]}
